In US20200276181A1, “THIENOISOQUINOLINES AND THEIR DERIVATIVES FOR TARGETING TUBULIN, CH-TOG, AURORA A KINASE, TPX2, CDK5RAP2 AND/OR ASPM” (VALORBEC, SEC, priority 2017, published 2020):

Assays:
[1] = test system: H1299 (non-small cell lung cancer) cells; experiment: Mitotic arrest after one population doubling time; format: cell-based, human; conditions: H1299, least responsive
Text: For each condition, 20,000 cells were counted per replicate (N=3). Line graphs (right) were made to better illustrate the relative changes in the cell cycle phases for the different treatments. Bars show standard deviation. The asterisks indicate the first statistically significant change in the G0/G1 and G2/M populations determined by a two-way ANOVA with a post-hoc Tukey's multiple comparisons test using 95% confidence intervals. FIG. 2B) is a line graph showing the percentage of HCT116 (p53−/−) cells, A549 cells, HeLa cells and H1299 cells in mitosis after treatment with various concentrations of C75 for one population doubling time. All of the cell lines show an increase in the proportion of mitotic cells after treatment with 200 nM C75. The bars indicate standard deviation. […]
C75 was also tested for efficacy in different cancer cell lines. […] To further assess the role of C75 in disrupting spindles, HeLa cells were treated with 300 nM C75 for 4 hours and the spindle phenotypes were analyzed in more detail (FIG. 2E). […] To assess the affect of C75 on centrosomes, HeLa cells were treated with C75 or nocodazole (a drug that causes microtubule depolymerization as a control) for a short period of time (5 minutes), then the drugs were removed and the cells were analyzed for spindle phenotypes (schematic in FIG. 2G). […]

[2] = test system: HeLa cells (GFP:tubulin, SiR-tubulin or GFP-tagged ch-TOG); experiment: Live imaging of spindles; format: cell-based, human
Text: Bars show standard deviation. […] The bars indicate standard deviation. […] Bars show standard deviation. […] Bars show standard deviation. […] The scale bar for all cells is 10 μm.

[3] = test system: HCT116 cells; experiment: Viability IC50 of C75 in combination with subthreshold colchicine; format: cell-based; conditions: + 3 nM colchicine
Text: (§1) Bars show standard deviation. […] The scale bar for all cells is 10 μm. In FIG. 4F), bar graphs show changes in the proportion of HCT 116 cells with the different spindle phenotypes as in FIG. 4D (n=2368; N=3). […] Bars indicate standard deviation.

[4] = test system: HeLa cells; experiment: Viability IC50 of C75 in combination with subthreshold tubulin-targeting drug; format: cell-based, human
Text: Bars show standard deviation. […] The bars indicate standard deviation. […] The bars indicate standard deviation. […] The scale bar for all cells is 10 μm.
as §1

[5] = test system: HeLa cells with lower levels of endogenous MCAK (MCAK RNAi); experiment: Spindle phenotypes with MCAK RNAi; format: cell-based, human; conditions: 300 nM C75 or 30 nM colchicine
Text: FIG. 8B) is a bar graph showing the proportion of spindle phenotypes in HeLa cells treated as in 8A).
Since this is unique to C75, and ch-TOG RNAi was previously shown to be suppressed (partially) by MCAK RNAi, supporting C75's role in targeting ch-TOG or a component of the pathway.

[6] = test system: HeLa cells; experiment: Spindle morphology, fixed cells stained for tubulin and DAPI; format: cell-based, human
Protocol: FIG. 1A) is a line graph showing changes in the percentage of viable HFF-1, HeLa, A549 and HCT 116 cells after treatment with a range of C75 concentrations for 3 population doubling times (N=3). […] There were more rounded mitotic cells after C75 treatment in comparison to the control. FIG. 1C) is a line graph showing the percentage of HeLa and HFF1 cells in mitosis after treatment with various concentrations of C75 for 8 hours. The bars indicate standard deviation. FIG. 1D) is a series of images showing cells that were fixed and co-stained for tubulin (microtubules) and DAPI (DNA). Treatment of HeLa cells with 300 nM C75 caused the mitotic spindles to be disorganized, while they were not affected in HFF1 cells. […] The scale bar for the cells is 10 μm. […] FIG. 1F) is a cartoon schematic showing the key features of a metaphase cell.
The images in FIG. 1B) show fields of view of HeLa cells treated with (dimethyl sulfoxide) DMSO or 500 nM of C75. […] Higher concentrations of C75 caused spindle phenotypes in HFF1 cells, but they were quite different in comparison to HeLa cells (FIG. 1D).

[7] = test system: S2 cells; experiment: Spindle phenotypes in live S2 cells expressing GFP-tagged tubulin; format: cell-based, Drosophila; conditions: 300 nM
Text: This will permit using Drosophila proteins for binding studies in vitro, and genetics-based tools for further study of the target.

What does the source list for `COc1ccc(S(=O)(=O)N2Cc3ccccc3-c3sc(Br)cc32)cc1` [Compound C75]?
concentration at which mitotic cells show a small increase [1]: 200 nM; time until spindle poles collapse together in metaphase cells ([2]; 100-300 nM): 1 to 2 min; time after exposure until centrosomes fragmented or declustered and microtubules collapsed ([2]; HeLa live imaging): 4 to 6 min; time after washout until microtubule polymers grew back ([2]; HeLa live imaging): 20 to 30 min; microtubule polymers without washout ([2]; HeLa live imaging, drugs not washed out): microtubule polymers grow back to form multipolar spindles; lowering of the IC50 of C75 by subthreshold colchicine [3]: ~2 fold; lowering of the IC50 of C75 by subthreshold colchicine ([4]; + 3 nM colchicine): ~2 fold; reduction of the IC50 of C75 by subthreshold paclitaxel ([4]; + 3 nM paclitaxel): ~2 fold; suppression of fragmented spindle phenotype by MCAK RNAi [5]: partially suppressed; mitotic spindle morphology ([6]; 300 nM): spindle organization was perturbed; mitotic spindle morphology ([6]; 750 nM): Centrosomes were fragmented or declustered and microtubules were completely absent; spindle phenotype in Drosophila S2 cells [7]: spindle phenotypes similar to what was observed in mammalian cells
